Activity and Ratio data for three molecules are collected here from ChEMBL document CHEMBL1147300, “Plant antiviral agents, VI. Isolation of antiviral phenolic glucosides from Populus cultivar Beaupre by droplet counter-current chromatography” (1989).

SMILES strings stand for the structures. Active and inactive are the calls of the source. No cut-off for these calls is given here.

For assay [1], the system named is Trichophyton mentagrophytes. Briefly: Antifungal activity against Trichophyton mentagrophytes at 500 ug/ml. The class given is functional, organism-based.
Assay [2] relates to Semliki Forest virus. Briefly: Antiviral activity against Semliki forest virus infected in african green monkey Vero cells assessed as ratio of viral titer in absence to presence of compound at 500 ug/ml by 50% endpoint titration technique. Type of assay: functional, organism-based.
The subject of the next assay is Trichophyton rubrum. Briefly: Antifungal activity against Trichophyton rubrum at 500 ug/ml. The class given is functional, organism-based.
Assay [3] deals with Enterovirus C. Nature of the assay: Antiviral activity against Poliovirus infected in african green monkey Vero cells assessed as ratio of viral titer in absence to presence of compound at 25 ug/ml by 50% endpoint titration technique. The class given is functional.
The next assay deals with Human alphaherpesvirus 1. Briefly: Antiviral activity against Herpes simplex virus type 1 infected in african green monkey Vero cells assessed as ratio of viral titer in absence to presence of compound at 500 ug/ml by 50% endpoint titration technique. Type of assay: functional, organism-based.
The subject of a further assay is Aspergillus niger. Briefly: Antifungal activity against Aspergillus niger at 500 ug/ml. The class given is functional, organism-based.
The subject of another assay is Microsporum canis. Nature of the assay: Antifungal activity against Microsporum canis at 500 ug/ml. The class given is functional, organism-based.
Assay [4] concerns Coxsackievirus. Nature of the assay: Antiviral activity against Coxsackievirus infected in african green monkey Vero cells assessed as ratio of viral titer in absence to presence of compound at 500 ug/ml by 50% endpoint titration technique. Type of assay: functional, organism-based.
The next assay relates to Measles morbillivirus. Briefly: Antiviral activity against Measles virus infected in african green monkey Vero cells assessed as ratio of viral titer in absence to presence of compound at 500 ug/ml by 50% endpoint titration technique. Type of assay: functional, organism-based.
The subject of assay [5] is Enterovirus C. Briefly: Antiviral activity against Poliovirus infected in african green monkey Vero cells assessed as ratio of viral titer in absence to presence of compound at 5 ug/ml by 50% endpoint titration technique. Type of assay: functional.
Assay [6] relates to Coxsackievirus. Nature of the assay: Antiviral activity against Coxsackievirus infected in african green monkey Vero cells assessed as ratio of viral titer in absence to presence of compound at 5 ug/ml by 50% endpoint titration technique. The class given is functional.
Assay [7] has as its system Semliki Forest virus. Nature of the assay: Antiviral activity against Semliki forest virus infected in african green monkey Vero cells assessed as ratio of viral titer in absence to presence of compound at 50 ug/ml by 50% endpoint titration technique. Type of assay: functional.

Take `OCc1ccccc1O[C@@H]1O[C@H](CO)[C@@H](O)[C@H](O)[C@H]1O` [SALICIN]: the result (in assay [1]; in the assay with Semliki Forest virus [2]; with Trichophyton rubrum; in the assay on Human alphaherpesvirus 1; in the assay with Aspergillus niger; in the assay on Microsporum canis) was inactive. Moreover, the outcome with Coxsackievirus [4] and in the assay with Measles morbillivirus was inactive. Besides, in the assay on Enterovirus C [3], the Ratio amounted to 1000.
Regarding `COc1c(-c2ccc(O)c(O)c2)oc2cc(O)cc(O)c2c1=O` [3-O-METHYLQUERCETIN], the result in the assay with Semliki Forest virus [2], in the assay with Human alphaherpesvirus 1 and with Measles morbillivirus was inactive. Moreover, the values for the Ratio in the assay on Enterovirus C [5] and in the assay on Coxsackievirus [6] were 100000000 and 10000000, respectively.
Regarding `O=C(OCc1cc(O)ccc1O[C@@H]1O[C@H](CO)[C@@H](O)[C@H](O)[C@H]1O)c1ccccc1` [SALIREPOSIDE], the outcome (in assay [1]; in the assay with Trichophyton rubrum; in the assay with Human alphaherpesvirus 1; with Aspergillus niger; in the assay with Microsporum canis; in the assay on Coxsackievirus [4]) was inactive. Moreover, the outcome with Measles morbillivirus was inactive. Further, the Ratio with Enterovirus C [3] and in the assay on Semliki Forest virus [7] was 10000 throughout.
